Earlier results on eight molecules are cited in patent publication US20060198860A1, “Synergistic blends of monoterpenes for mountain pine beetle pheromones” (Phero Tech Inc., priority 2005, published 2006).

Read-outs that look alike come from different tables or passages of the source.

The subject of data set [1] is mountain pine beetle. To be noted: for catch versus pheromones alone: five doses, less than 1.0 mg per day to over 6.0 g per day.
For a further data set, the system named is mountain pine beetles. Particulars: component alone.
The test system of data set [2] is mountain pine beetle. Particulars: in one instance (of four Rocky Mountain locations); with trans-verbenol and exo-brevicomin.
Data set [3] concerns mountain pine beetle. Particulars: myrcene from 18 mg per day to 150 mg per day; traps also baited with trans-verbenol and exo-brevicomin.
For data set [4], the system named is mountain pine beetle. To be noted: myrcene at approximately 100 mg per day.

As to `C=C1C=CC(C(C)C)CC1` (stereo not drawn) [β-phellandrene], in the data set with mountain pine beetle [1], the “catch versus pheromones alone” value is given as “at no dose was the catch significantly higher”. `CC1=CCC2CC1C2(C)C` (stereo not drawn) [α-pinene]: the “catch versus pheromones alone” value in the data set on mountain pine beetle [1] is “at no dose was the catch significantly different”. As for trans-verbenol, the beetles caught result with mountain pine beetles was “no beetles”.

Consider `CC1=CCC(=C(C)C)CC1` [terpinolene], for which, in the data set with mountain pine beetle [2], the “synergist, times better than myrcene” value is recorded as approximately 88 times. Further, the “catch versus pheromones alone” value with mountain pine beetle [1] is “no combination of terpinolene with trans-verbenol and exo-brevicomin that resulted in higher catches”. For the same molecule, the “response versus pheromones alone” value with mountain pine beetle [1] (highest dose (2.1 g per day)) is listed as “significantly lowered”. Consider `C=CC(=C)CCC=C(C)C` [myrcene], for which the “catches versus pheromones alone” value with mountain pine beetle [1] (doses of 0.9 and 6.4 g per day) is listed as “significantly higher”. The “numbers of both sexes captured on raising the release rate” value in the data set on mountain pine beetle [3] is “more than doubling”. The results for the “synergist relative to the foliage blend” value with mountain pine beetle [4] (females) and in the data set with mountain pine beetle [4] (males) were “over three times better” and “over four times a better synergist”, respectively. For `C=C1CCC2CC1C2(C)C` (stereo not drawn) [β-pinene], the “catch versus pheromones alone” value in the data set with mountain pine beetle [1] was “at no dose was the catch significantly different”. Turning to `CC1=CCC(C(C)C)=CC1` [γ-terpinene], the “catches versus pheromone controls” value with mountain pine beetle [1] (doses of 51.7 mg per day and 1.1 g per day) is recorded as “significantly higher”. Turning to `CC1=CCC2C(C1)C2(C)C` (centres unmarked) [3-carene], in the data set with mountain pine beetle [1] (dose of 600 mg per day), the “catches versus pheromones alone” value is given as “higher than to the pheromones alone”. For the same molecule, the beetles caught entry in the data set with mountain pine beetles is given as “one female”.
